A short description of the data set: microscopy of dexamethasone crystals in pure saline and in the innovation. The note with it: in phospholipid solution. Type of data set: physicochemical.

`CC(=O)OCC(=O)[C@@]1(O)[C@H](C)C[C@H]2[C@@H]3CCC4=CC(=O)C=C[C@]4(C)[C@@]3(F)[C@@H](O)C[C@@]21C` [dexamethasone crystals, dexamethasone acetate]: the “crystals after twelve hours” value (after twelve hours) is “no longer detectable”. This compound returned a reduction of crystals (within six hours) of 50%.

Source of the values: patent publication US20130296267A1, “AGENT FOR INTRA-ARTICULAR INJECTION” (priority 2008, published 2013).
